Data taken from the NIST ThermoML archive (doi:10.1016/j.fluid.2013.07.008).

Test: xn = mol fraction of the nth substance listed
Conditions: Capillary rise

CC [ethane] + C
Conditions	surface tension liquid-gas [mN/m]
93.15 K, x2 = 0	32.9
133.15 K, x2 = 0	25.32
133.15 K, x2 = 0.194	20.74
133.15 K, x2 = 0.414	16.34
133.15 K, x2 = 0.527	14.45
133.15 K, x2 = 0.821	10.78
173.15 K, x2 = 0	18.26
173.15 K, x2 = 0.133	15.59
173.15 K, x2 = 0.139	15.37
173.15 K, x2 = 0.256	12.87
173.15 K, x2 = 0.421	9.8
173.15 K, x2 = 0.429	9.6
173.15 K, x2 = 0.459	9.07
173.15 K, x2 = 0.565	7.67
173.15 K, x2 = 0.587	7.14
173.15 K, x2 = 0.684	5.98
173.15 K, x2 = 0.691	5.79
173.15 K, x2 = 0.793	4.51
173.15 K, x2 = 0.818	4.29
173.15 K, x2 = 0.821	4.25
193.15 K, x2 = 0	15.01
193.15 K, x2 = 0.134	12.26
193.15 K, x2 = 0.16	11.62
193.15 K, x2 = 0.284	9.34
193.15 K, x2 = 0.287	9.07
193.15 K, x2 = 0.395	7.34
193.15 K, x2 = 0.501	5.47
193.15 K, x2 = 0.672	3.49
193.15 K, x2 = 0.685	3.23
213.15 K, x2 = 0	11.79
213.15 K, x2 = 0.024	11.22
213.15 K, x2 = 0.116	9.57
213.15 K, x2 = 0.17	8.6
213.15 K, x2 = 0.238	7.28
213.15 K, x2 = 0.447	4.11
213.15 K, x2 = 0.539	2.71
233.15 K, x2 = 0	8.77
233.15 K, x2 = 0.075	7.19
233.15 K, x2 = 0.143	6.06
233.15 K, x2 = 0.153	5.89
233.15 K, x2 = 0.214	4.93
233.15 K, x2 = 0.228	4.7
233.15 K, x2 = 0.292	3.63
233.15 K, x2 = 0.297	3.55
233.15 K, x2 = 0.362	2.74
233.15 K, x2 = 0.369	2.58
253.15 K, x2 = 0	5.77
253.15 K, x2 = 0.048	5.17
253.15 K, x2 = 0.099	4.4
253.15 K, x2 = 0.145	3.73
253.15 K, x2 = 0.196	2.98
253.15 K, x2 = 0.241	2.34
253.15 K, x2 = 0.242	2.28
263.15 K, x2 = 0	4.48
263.15 K, x2 = 0.048	3.82
263.15 K, x2 = 0.098	3.15
263.15 K, x2 = 0.142	2.58
263.15 K, x2 = 0.185	2.03
273.15 K, x2 = 0	3.2
273.15 K, x2 = 0.035	2.76
273.15 K, x2 = 0.083	2.19
273.15 K, x2 = 0.124	1.75
283.15 K, x2 = 0	1.96
283.15 K, x2 = 0.017	1.82
283.15 K, x2 = 0.045	1.5
283.15 K, x2 = 0.065	1.33
283.15 K, x2 = 0.067	1.29

C [methane] + CC
x1 = 1
Conditions	surface tension liquid-gas [mN/m]
93.15 K	16.69
133.15 K	8.78
173.15 K	2
